Results as given in PubChem BioAssay (NCI).
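Protocol summary: plate cells (96-well), add compound at 5 concentrations, incubate 48 h, interpolate endpoints linearly. GI50: concentration for 50% inhibition of growth. At the TGI there is no net growth.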

Experiments:
Experiment in all cases: inhibition of tumour cell growth, NCI panel, 48 h
[1] = test system: BT-549 breast
[2] = test system: MDA-MB-231 breast
[3] = test system: MDA-MB-435
[4] = test system: NCI/ADR-RES ovarian
[5] = test system: T-47D breast
[6] = test system: MCF7 breast

Row | SMILES | GI50 [1] [µM] | TGI [1] [µM] | GI50 [2] [µM] | TGI [2] [µM] | GI50 [3] [µM] | TGI [3] [µM] | GI50 [4] [µM] | TGI [4] [µM] | GI50 [5] [µM] | TGI [5] [µM] | GI50 [6] [µM] | TGI [6] [µM]
1 | CO/N=C(/COc1c(-c2ccccc2)oc2ccccc2c1=O)c1ccc(OC)cc1 | > 100 | > 100 | 31.3 | > 100 | 30.7 | > 100 | 76.2 | > 100 | 26.9 | > 100 |  | 
2 | COc1ccc(-c2cc(-c3cn[nH]c3-c3ccccn3)ccn2)cc1 | > 25 | > 25 | > 25 | > 25 | > 19.2 | > 25 | > 25 | > 25 | > 25 | > 25 | > 25 | > 25
3 | Cc1cc2c3ccccc3ccc2[n+]2ccccc12 | 1.4 | 7.77 | 18.5 | > 100 | 8.56 | 26.6 | > 100 | > 100 | 1.86 | 6.8 | 2.35 | > 38.8
4 | N#Cc1cccc(/C=C(/C(=O)c2ccccc2)c2ccccc2)c1 | 4.16 | 15.1 | 4.25 | > 100 | 3 | 11 | 3.62 | > 100 | 3.78 | 17.3 | 3.85 | 15.9
5 | COc1ccc2[nH]c(=O)c(/C=C/C(=O)/C=C/c3ccc(O)c(OC)c3)cc2c1 | 1.37 | 2.66 | 1.92 | 3.78 | 0.301 | 1.3 | 3.39 | > 100 | 2.63 | 13.9 | 0.388 | 1.89
6 | c1ccc(-c2nnc(Nc3ccc4c(c3)OCCO4)o2)c(NCc2ccncc2)c1 | 0.0589 | 7.01 | 0.0769 | > 100 | < 0.01 | 0.0171 | 0.0162 | > 51.3 | 1.65 | 16.9 | 0.0904 | > 38.8
7 | CCCCCCCCCCCC[n+]1ccccc1 | 1.01 | 3.03 | 1.34 | 3.4 | 1.18 | 3.22 | 14.9 | 50.7 | 0.936 | 11.2 | 1.25 | 9.38
8 | C#C[C@@]1(O)[C@@H](CO)O[C@@H](n2ccc3c(N)ncnc32)[C@@H]1O | 1.63 | 3.64 | 1.53 | 5.89 | 1.48 | 3.49 | 0.791 | 7.28 | 0.445 | 2.14 | 0.239 | 5.67
9 | Nc1ccn(C2CC(O)C(CO)O2)c(=O)n1 (stereo unspecified) | > 5000 | > 5000 | > 5000 | > 5000 | > 5000 | > 5000 | > 5000 | > 5000 | > 5000 | > 5000 | > 5000 | > 5000
10 | COc1cc2nc(N3CCCC3)nc(Nc3ccccc3)c2cc1OC | 1.69 | 3.25 | 1.56 | 3.11 | 1.66 | 3.09 | 1.74 | 4.07 |  |  | 0.637 | 2.29
11 | COc1ccc(/C=C/C(=O)c2ccc3cc(OC)c(OC)cc3c2)cc1OC | 2.55 | 8.39 | 6.19 | > 100 | 3.06 | 18.1 | 2.71 | 8.85 | 2.93 | 33.5 | 2.69 | 12.1
12 | O=Cc1ccc(Oc2c3ccccc3nc3occc23)cc1 |  |  |  | 22.5 | 6.49 | 24.7 | 15.2 | 45 | 11.4 | 36.3 | 13.8 | 32.2
13 | O=C1c2cc3c(cc2[C@@H]2[C@H]1c1ccc([N+](=O)[O-])cc1C(=O)N2CCCCl)OCO3 |  |  | < 0.0416 | 2.38 | < 0.01 | < 0.0422 | < 0.01 | 0.548 | > 100 | > 100 | < 0.01 | 
14 | CC[C@H](C)[C@H](NC(=O)Nc1ccccc1)C(=O)N(C)[C@H](C[C@@H](OC(C)=O)c1nc(C(=O)N[C@@H](Cc2ccccc2)C[C@H](C)C(=O)OC)cs1)C(C)C | 3.09 | 41.2 | 3.36 | 22.1 | 0.416 | 1.86 | 54.2 | > 100 |  |  | 1.27 | > 100
15 | ICCC(c1ccccc1)(c1ccccc1)c1ccccc1 |  |  | 4.41 | 19.8 | 2.14 | 6.72 | 11.1 | 29.5 | 14 | 34.1 | 10.6 | 26.7
